Earlier results as cited in paper PMC7914841, “Systemic Delivery of hGhrelin Derivative by Lyophilizate for Dry Powder Inhalation System in Monkeys” (Pharmaceutics, 2021).
Where no end group is shown, it is not given here. The star is where a group is joined. Octanoyl = CCCCCCCC(=O)*

Test system: growth hormone (GH) release
Conditions: healthy humans, intravenously injected

ghrelin: peptide hormone of 28 amino acids, O-n-octanoylated at the 3rd serine residue (GSS(Octanoyl)FLSPEHQRVQQRKESKKPPAKLQPR; UniProt Q9UBU3 24-51, looked up)
ratio of AUC of GH, 5 µg/kg vs 1 µg/kg: 1.3–1.6 times
